Measured values from US11149047B2, “Aryl imidazoles for treatment of cancer” (Aptose Biosciences Inc., priority 2017, dated 2021).
Marks after values point to notes of the source that are not given here.

What was measured:
KG-1 AML cells = assay: Uptake and efflux assay by mass spectrometry; type: in vitro ADME; settings: exposed 1 or 6 hours, then drug-free media
Procedure: Cells exposed to COMPOUND I were homogenized in acetonitrile containing 5 ng of deuterated COMPOUND I standard. Samples were analyzed at the UCSD Molecular Mass Spectrometry Facility employing an Agilent 1260 liquid chromatograph (LC) system coupled with a Thermo LCQdeca mass spectrometer using positive ion mode electrospray ionization as the ion source.
Measurement of the kinetics of uptake and efflux of COMPOUND I in KG-1 AML cells determined by mass spectrometry indicated a gradual approach to steady state and a rapid initial efflux, but a very prolonged terminal efflux (FIGS. 20A and 20B). When KG-1 cells were exposed to COMPOUND I for either 1 or 6 hours and then placed in drug-free media, the efflux pattern consisted of a rapid phase occurring during the first 30 minutes followed by a prolonged terminal phase, such that significant amounts of COMPOUND I were retained in KG-1 cells for longer than 24 hours. […] (FIGS. 20C and 20D).

Raji/COMPOUND IR cells = assay: Cytotoxicity study, MTS cell proliferation assay, 5 days; type: cell-based, human; settings: for RR (relative resistance): Raji/COMPOUND IR vs Raji; for IC50: Homo sapiens, Raji
Procedure: (§1) The human Burkitt lymphoma cell line Raji was obtained from the American Type Tissue Culture Collection and cultured in RPMI 1640 medium (ATCC) supplemented with 10% fetal bovine serum (ATCC,) at 37° C., 5% CO2. The COMPOUND I-resistant Raji (Raji/COMPOUND IR) cell line was generated by exposure to progressively higher concentrations of COMPOUND I over a period of 6 months. CAOV3 cells were obtained from ATCC and cultured in complete DMEM supplemented with 10% fetal bovine serum. MCF7 vector controlled and BRCA1 shRNA subclones were obtained from Dr. Simon Powell (Memorial Sloan-Kettering Cancer Center) and cultured in EMBM with 10% fetal bovine serum. MCF10A and hTERT-IMEC clones were obtained from Dr. Ben Ho Park (Johns Hopkins University). HCT116 BRCA2^+/+ cells and BRCA2^−/− cells were obtained from Dr. Samuel Aparicio (British Columbia Cancer Research Centre). PEO1 and PEO4 cells were obtained from Dr. Sharon Cantor (University of Massachusetts) and these cell lines were cultured under the same conditions as previously published. Sakai et al., Functional restoration of BRCA2 protein by secondary BRCA2 mutations in BRCA2-mutated ovarian carcinoma, Cancer Res. 2009; 69 (16):6381-6; Konishi et al., Mutation of a single allele of the cancer susceptibility gene BRCA1 leads to genomic instability in human breast epithelial cells, Proc. Natl. Acad. Sci. 2011; 108 (43):17773-8; Xu et al., CX-5461 is a DNA G-quadruplex stabilizer with selective lethality in BRCA1/2 deficient tumours, Nature Communications 2017; 8:14432, all of which are hereby incorporated by reference.
(§2) Cells were plated and treated with the indicated drugs in 96-well plates for 5 days. Cell viability was measured using CellTiter 96 AQueous one solution (MTS) cell proliferation assay purchased from Promega, and IC50 values were calculated using GraphPad Prism 6 Software.

Raji cells = assay: as above; type: cell-based, human; settings: Homo sapiens, Raji
Procedure: as §1, §2

[1] = tested on: protein levels in MV4-11 cells; assay: Reverse-phase protein array (RPPA) analysis; type: cell-based; settings: 500 nmol/L, 6 h vs vehicle
Procedure: MV4-11 cells were treated as for RNA sequencing (RNA-seq) analysis and whole-cell extracts were prepared for Western blotting. Samples were processed at MD Anderson Cancer Center reverse-phase protein array (RPPA) core facility (details at https://www.mdanderson.org/research/research-resources/core-facilities/functional-proteomics-rppa-core/rppa-process.html). Protein expression levels were averaged for 3 replicates and heatmaps were drawn using GraphPad Prism 7.
To examine the effect of COMPOUND I on protein expression, MV4-11 cells were treated as above and analyzed by RPPA microarray to quantify >300 total and post-translationally modified proteins. […] Of note, there was an increase of cleaved caspase-7, which is indicative of apoptosis. GO analysis of the differentially expressed proteins was performed utilizing the Broad Molecular Signatures database. Significant GO terms included cell death and G1-S cell-cycle arrest pathways, a formal description of G0-G1 arrest, and consistent with the cell-cycle effects detected by flow cytometry and the RNA-seq analyses (FIG. 18C). An increase in E2F1, TP53, γH2AX, CHEK1 phos-S296, and CHEK2 phos-T68 supported the concept that DNA damage pathways are triggered by COMPOUND I treatment. In addition, increases in XBP1, HSPA5, and MAPK14 (p38) phos-T180/182 were observed, indicating ER or cellular stress ([…]; ref 15). DDR pathways can also signal through the MAPK pathway activating MAPK14 and MAPK8 (JNK), and cross-talk between the DDR pathway and ER stress is a well-established phenomenon although it is unclear which pathway represents the initiating event. A significant portion of the differentially expressed proteins and mRNAs are target genes of MYC oncoprotein, which is known to be an integral part of both cell-cycle and apoptotic pathway regulation.

Cc1[nH]c2ccc(F)cc2c1-c1nc2c3cccnc3c3ncccc3c2[nH]1 [COMPOUND I, 2-(5-fluoro-2-methyl-1H-indol-3-yl)-1H-imidazo[4,5-f][1,10]phenanthroline]
duration of rapid efflux phase (KG-1 AML cells): 30 min | retention of significant amounts in cells (KG-1 AML cells): > 24 h | fold resistant to COMPOUND I (Raji/COMPOUND IR over sensitive Raji) (Raji/COMPOUND IR cells): 16.7±3.9 fold | RR (relative resistance) (Raji/COMPOUND IR cells; COMPOUND I + 5 nM Ko143): 10.9 ± 1.9^c | RR (relative resistance) (Raji/COMPOUND IR cells; COMPOUND I + 50 nM Ko143): 2.5 ± 0.7^a | RR (relative resistance) (Raji/COMPOUND IR cells; COMPOUND I alone): 16.7 ± 3.9^b | IC50 (Raji/COMPOUND IR cells; COMPOUND I + 5 nM Ko143, Raji/COMPOUND IR): 853 ± 44 nM | IC50 (Raji/COMPOUND IR cells; COMPOUND I + 50 nM Ko143, Raji/COMPOUND IR): 201 ± 20.7 nM | IC50 (Raji/COMPOUND IR cells; COMPOUND I alone, Raji/COMPOUND IR, mean ± SEM): 1390 ± 94 nM | IC50 (Raji/COMPOUND IR cells; Raji/COMPOUND IR cells): 1390 ± 98.5 nM | IC50 (Raji cells; 120 h, parental Raji cells, growth rate during 120 h exposure): 91.9 ± 22.3 nM | IC50 (Raji cells; COMPOUND I + 5 nM Ko143): 98.3 ± 0.8 nM | IC50 (Raji cells; COMPOUND I + 50 nM Ko143): 103 ± 2.9 nM | IC50 (Raji cells; COMPOUND I alone, mean ± SEM): 105 nM | fold change ACC_pS79 [1]: 1.302 fold | fold change ADAR1 [1]: 1.308 fold | fold change Bad_pS112 [1]: 1.55 fold | fold change BiP-GRP78 [1]: 1.29 fold | fold change CD29 [1]: 1.291 fold | fold change Caspase-3 [1]: 2.382 fold | fold change Caspase-7-cleaved [1]: 1.671 fold | fold change Chk1 [1]: 1.433 fold | fold change Chk2_pT68 [1]: 1.312 fold | fold change Cyclin-B1 [1]: 0.5944 fold | fold change Cyclin-E1 [1]: 1.361 fold | fold change DM-Histone-H3 [1]: 2.008 fold | fold change DM-K9-Histone-H3 [1]: 2.003 fold | fold change E2F1 [1]: 1.423 fold | fold change Ets-1 [1]: 0.6034 fold | fold change H2AX_pS140 [1]: 4.196 fold | fold change Hif-1-alpha [1]: 1.482 fold | fold change Histone-H3 [1]: 5.083 fold | fold change N-Ras [1]: 1.397 fold | fold change NDRG1_pT346 [1]: 0.4566 fold | fold change PAI-1 [1]: 1.257 fold | fold change PAR [1]: 2.707 fold | fold change PLK1 [1]: 0.4946 fold | fold change Pdcd-1L1 [1]: 1.262 fold | fold change Rb_pS807_S811 [1]: 0.6486 fold | fold change S6_pS240_S244 [1]: 0.6467 fold | fold change Syk [1]: 1.433 fold | fold change Ubq-Histone-H2B [1]: 1.375 fold | fold change XBP-1 [1]: 1.369 fold | fold change p38_pT180_Y182 [1]: 2.022 fold | fold change p53 [1]: 1.288 fold
